From patent US7923465B2, “Cannabinoid receptor ligands, pharmaceutical compositions containing them, and process for their preparation” (priority 2005, dated 2011)
Read-outs that look alike come from different tables or passages of the source.

Key:
hCB2 [1] = target: T1, hCB2 (Homo sapiens, UniProt P34972); experiment: In vitro binding assay using hCB2-CHO membranes, [3H]-CP-55,940 displacement (Protocol IV); set-up: expressed in transfected cells; host or cells: CHO (hCB2-CHO, generated in-house); details: for inhibition at 0.3 µM: 1 h, read-out: % Displacement Protocol IV
T1 sequence (P34972 whole entry): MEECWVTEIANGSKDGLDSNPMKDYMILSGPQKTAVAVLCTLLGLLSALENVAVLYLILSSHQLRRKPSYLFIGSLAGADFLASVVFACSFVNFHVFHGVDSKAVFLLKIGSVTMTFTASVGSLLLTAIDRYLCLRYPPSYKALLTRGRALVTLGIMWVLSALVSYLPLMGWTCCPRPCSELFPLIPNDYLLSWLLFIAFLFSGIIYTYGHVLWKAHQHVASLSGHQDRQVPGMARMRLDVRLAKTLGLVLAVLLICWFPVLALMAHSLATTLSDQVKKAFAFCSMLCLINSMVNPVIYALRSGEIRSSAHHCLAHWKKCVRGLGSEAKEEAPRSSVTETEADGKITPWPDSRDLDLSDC
Summary of the method: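 Displacement of [3H]-CP-55,940 (0.75 nM) from membranes of CHO cells expressing human CB2 (25-50 μg) was measured in Tris-BSA buffer pH 7.4 with 5 mM MgCl2, 1 mM EDTA, 0.1% BSA, 1 h at 30 °C. Test compounds were at 300 nM final; nonspecific binding defined with 0.5 μM CP-55,940. Values are % displacement of specific binding.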

CB1 = CB1 (Rattus norvegicus, UniProt P20272); experiment: GTPγS binding assay, CB1 functional assay in rat cerebellar membrane (Protocol VIII); format: biochemical; set-up: 10 μg rat cerebellum membrane; from tissue; host or cells: rat cerebellum membrane, prepared in-house; details: for activation at 1 µM: 1 h, read-out: Per Se % Stimulation; for inhibition at 1 µM: read-out: % Inhibition of WIN-55212-2 induced stimulation
CB1, sequence (P20272 whole entry): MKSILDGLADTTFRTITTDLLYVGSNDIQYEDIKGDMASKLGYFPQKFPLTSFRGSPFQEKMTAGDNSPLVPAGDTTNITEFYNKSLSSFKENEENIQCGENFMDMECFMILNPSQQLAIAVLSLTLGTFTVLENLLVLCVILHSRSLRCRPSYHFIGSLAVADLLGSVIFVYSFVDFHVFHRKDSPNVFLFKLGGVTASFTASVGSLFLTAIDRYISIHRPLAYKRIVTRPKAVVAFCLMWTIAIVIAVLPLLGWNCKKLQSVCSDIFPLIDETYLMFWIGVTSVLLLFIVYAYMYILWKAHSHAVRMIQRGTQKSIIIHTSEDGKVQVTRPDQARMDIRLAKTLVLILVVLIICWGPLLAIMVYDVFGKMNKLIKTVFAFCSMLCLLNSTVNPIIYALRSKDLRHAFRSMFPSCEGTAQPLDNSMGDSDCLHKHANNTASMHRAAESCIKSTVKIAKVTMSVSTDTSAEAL
Summary of the method: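 Rat cerebellar membranes (10 μg) incubated 1 h at 30 °C with 0.2 nM [35S]GTPγS, 50 μM GDP, and compound at 1 μM or 300 nM, alone or with 1 μM WIN 55,212-2, in Tris/MgCl2/EGTA/NaCl pH 7.4. Filter-bound radioactivity counted; percent stimulation calculated against basal specific binding (nonspecific defined by 10 μM GTPγS).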

hCB2 [2] = target: T1, hCB2; experiment: Antagonism of CB2 receptors expressed in CHO cells, cAMP assay against CP 55,940 (Protocol IX.1); format: cell-based; set-up: expressed in transfected cells; host or cells: CHO (h-CB2/CHO, G418-selected); details: CHO, h-CB2/CHO cells, vs 10 nM CP 55,940
Summary of the method: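 h-CB2/CHO cells in Krebs buffer with 0.1% FAF-BSA and 1 mM IBMX were pre-incubated 10 min with antagonist, then stimulated 30 min at room temperature with 10 nM CP 55,940 plus 10 μM forskolin. cAMP quantified by chemiluminescence; values from nonlinear regression of dose–response curves.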

[3] = hCB2-CHO membranes, [3H]-CP-55,940 displacement
[4] = GTPγS binding over basal, rat cerebellar membrane, tested at 1 uM
[5] = GTPγS binding, tested at 1 uM in presence of 1 μM WIN 55,212-2

**Q.** Which results are given for `O=C(NN1CCCCC1)c1nn(-c2ccc(Cl)cc2)c2c1C1CC3CC(C1)CC2C3` [Example 140, N(7)-Piperidino-5-(4′-chlorophenyl)-5,6-diazatetracyclo[7.3.1.1^3,11.0^4,8]tetradeca-4(8)-6-diene-7-carboxamide]?
**A.** % Displacement Protocol IV (hCB2 [1]; [3]): 15.79%; Per Se % Stimulation (CB1; [4]): 24.9%; % Inhibition of WIN-55212-2 induced stimulation (CB1; [5]): 71.9%

**Q.** What does the source list for `CN(NC(=O)c1nn(-c2ccc(Cl)cc2)c2c1C1CCC2C1)C1CCCCC1` (centres unmarked) [Example 213, N(3)-[(N-Cyclohexyl-N-methyl)amino]-1-(4-chlorophenyl)-4,5,6,7-tetrahydro-1H-4,7-methano-indazole-3-carboxamide]?
**A.** inhibition at 0.3 µM (hCB2 [1]; [3]): 71.8%; inhibition at 10 µM (hCB2 [2]): 22.1%

**Q.** `O=C(NCc1ccccc1Cl)c1nn(-c2ccc(Cl)cc2)c2c1C1CCC2C1` (centres unmarked) [Example 221, N(3)-(2-Chlorobenzyl)-1-(4-chlorophenyl)-4,5,6,7-tetrahydro-1H-4,7-methano-indazole-3-carboxamide] was tested. Which inhibition at 0.3 µM (hCB2 [1]) did it give?
**A.** 75.7%

**Q.** And the inhibition at 10 µM (hCB2 [2])?
**A.** 30.1%

**Q.** What about the activation at 1 µM (CB1; [4]) of the same compound?
**A.** -16.7%

**Q.** And the inhibition at 1 µM (CB1; [5])?
**A.** 95.7%

**Q.** What does the source list for `O=C(NCc1ccc(Cl)cc1Cl)c1nn(-c2ccc(Cl)cc2Cl)c2c1C1CCC2C1` (centres unmarked) [Example 251, N(3)-(2,4-Dichlorobenzyl)-1-(2,4-dichlorophenyl)-4,5,6,7-tetrahydro-1H-4,7-methano-indazole-3-carboxamide]?
**A.** inhibition at 0.3 µM (hCB2 [1]; [3]): 60.2%; inhibition at 10 µM (hCB2 [2]): 40.8%

**Q.** Which inhibition at 0.3 µM (hCB2 [1]; [3]) does the source give for `O=C(NNc1ccccc1Cl)c1nn(-c2ccc(Cl)cc2Cl)c2c1C1CCC2C1` (centres unmarked) [Example 257, N(3)-[(2-Chlorophenyl)amino]-1-(2,4-dichlorophenyl)-4,5,6,7-tetrahydro-1H-4,7-methano-indazole-3-carboxamide] here?
**A.** 83.9%

**Q.** What about the inhibition at 10 µM (hCB2 [2]) of the same compound?
**A.** 37.5%

**Q.** And the activation at 1 µM (CB1; [4])?
**A.** -5.1%

**Q.** What about the inhibition at 1 µM (CB1; [5]) of the same compound?
**A.** 48.3%

**Q.** With `O=C(NNc1ccc(Cl)cc1Cl)c1nn(-c2ccc(Cl)cc2Cl)c2c1C1CCC2C1` (centres unmarked) [Example 260, N(3)-[(2,4-Dichlorophenyl)amino]-1-(2,4-dichlorophenyl)-4,5,6,7-tetrahydro-1H-4,7-methano-indazole-3-carboxamide] as the compound, how does the inhibition at 0.3 µM (hCB2 [1]; [3]) read?
**A.** 80.2%

**Q.** What about the inhibition at 10 µM (hCB2 [2]) of the same compound?
**A.** 34.8%

**Q.** And the activation at 1 µM (CB1; [4])?
**A.** 38%

**Q.** And the inhibition at 1 µM (CB1; [5])?
**A.** 78.8%

**Q.** What does the source list for `O=C(NNc1ccccc1Br)c1nn(-c2ccc(Cl)cc2Cl)c2c1C1CCC2C1` (centres unmarked) [Example 263, N(3)-[(2-Bromophenyl)amino]-1-(2,4-dichlorophenyl)-4,5,6,7-tetrahydro-1H-4,7-methano-indazole-3-carboxamide]?
**A.** inhibition at 0.3 µM (hCB2 [1]; [3]): 79%; inhibition at 10 µM (hCB2 [2]): 27.1%

**Q.** What does the source list for `O=C(NC1CCCCC1)c1nn(-c2ccc(Br)cc2)c2c1C1CCC2C1` (centres unmarked) [Example 275, N(3)-Cyclohexyl-1-(4-bromophenyl)-4,5,6,7-tetrahydro-1H-4,7-methano-indazole-3-carboxamide]?
**A.** inhibition at 0.3 µM (hCB2 [1]; [3]): 72.3%; inhibition at 10 µM (hCB2 [2]): 19.1%
